Measurements from paper PMC8294059, “Identification and Immune Assessment of T Cell Epitopes in Five Plasmodium falciparum Blood Stage Antigens to Facilitate Vaccine Candidate Selection and Optimization” (Frontiers in Immunology, 2021).
Where two headings read alike, the source gives them in different places. Where a SMILES comes first, the peptide text is derived from it.

Experiments:
[1] = target: HLA-A*2402 (Homo sapiens, UniProt P04439, D101N/D140Y/D185E/E176V/E190D/F33S/G103R/G107R/I119L/I121M/I306V/K335N/L105A/L180Q/L300P/N151K/N90K/Q86E/Q94H/R106L/R138H/R89G/T104I/T345S/V100E/W191G/Y123F); assay: In vitro class I HLA binding assay (fluorescence polarization competition); conditions: allele A*2402
How it was run: (§1)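 Cell-free competition assay: HLA heat-treated 53°C for 15 min to strip endogenous peptides, then mixed with fluorescent high-affinity control peptide and test peptides for 72 h to equilibrium. Displacement read by fluorescence polarization as percent inhibition; IC50 derived from a concentration range.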

[2] = target: HLA-A*0101 (Homo sapiens, UniProt P04439, A114D/A174V/A182V/D101N/D185E/E176A/E190D/L180R/Q94H/R68K/S129P/T187R/V100A/V91M/W191G); assay: biochemical; format: binding; conditions: allele A*0101, fluorescence polarization competition; for IC50: read-out: IC50 (nM), in vitro HLA binding affinity
How it was run: as §1

[3] = target: HLA-A*0301 (Homo sapiens, UniProt P04439); assay: biochemical; format: binding; conditions: allele A*0301, fluorescence polarization competition; for IC50: read-out: IC50 (nM), in vitro HLA binding affinity
How it was run: as §1

[4] = target: HLA-A*0201 (Homo sapiens, UniProt P04439, D140Y/D185E/D98H/E176V/E277Q/G131W/G231S/I119V/I121R/I166T/I218V/L300P/L318F/N151K/N90K/P208A/P217A/Q86G/Q94H/R138H/R169H/T345S); assay: In vitro class I HLA binding assay (fluorescence polarization competition); conditions: allele A*0201; fluorescence polarization competition; read-out: IC50 (nM), in vitro HLA binding affinity
How it was run: as §1

[5] = fluorescence polarization competition, read-out: IC50 (nM), in vitro HLA binding affinity
[6] = cell-free competition, fluorescence polarization at 72 hours, Non-binder = no dose-dependent inhibition, read-out: IC50

N=C(N)NCCC[C@H](NC(=O)CNC(=O)[C@H](Cc1ccccc1)NC(=O)[C@@H](N)CC(N)=O)C(=O)NCC(=O)N[C@@H](CCC(N)=O)C(=O)N[C@@H](CC(N)=O)C(=O)N[C@@H](Cc1ccc(O)cc1)C(=O)N[C@@H](Cc1c[nH]c2ccccc12)C(=O)O [AMA1_020] (H-NFGRGQNYW-OH)
IC50 [1, 5]: 229 nM

CC(C)C[C@H](NC(=O)[C@@H]1CCCN1C(=O)[C@H](Cc1ccc(O)cc1)NC(=O)[C@@H](N)CCC(=O)O)C(=O)N[C@@H](Cc1c[nH]cn1)C(=O)N[C@@H](CCC(N)=O)C(=O)N[C@@H](CCC(=O)O)C(=O)N[C@@H](Cc1c[nH]cn1)C(=O)N[C@H](C(=O)N[C@@H](Cc1ccc(O)cc1)C(=O)O)[C@@H](C)O [AMA1_052] (H-EYPLHQEHTY-OH)
IC50 [1, 5]: 999 nM

CSCC[C@H](NC(=O)[C@H](Cc1ccc(O)cc1)NC(=O)[C@@H](N)CC(N)=O)C(=O)NCC(=O)N[C@@H](CC(N)=O)C(=O)N1CCC[C@H]1C(=O)N[C@@H](Cc1c[nH]c2ccccc12)C(=O)N[C@H](C(=O)N[C@@H](CCC(=O)O)C(=O)O)[C@@H](C)O [AMA1_104] (H-NYMGNPWTE-OH)
IC50 [1, 5]: 37900 nM

CC(C)C[C@H](NC(=O)[C@H](Cc1ccc(O)cc1)NC(=O)[C@@H](N)CCC(N)=O)C(=O)N[C@@H](CCCCN)C(=O)N[C@@H](CC(=O)O)C(=O)NCC(=O)NCC(=O)N[C@@H](Cc1ccccc1)C(=O)N[C@@H](C)C(=O)N[C@@H](Cc1ccccc1)C(=O)O [AMA1_174] (H-QYLKDGGFAF-OH)
IC50 [1, 5]: 41.9 nM

CC[C@H](C)[C@H](NC(=O)[C@H](CC(=O)O)NC(=O)[C@@H](N)CCC(=O)O)C(=O)N1CCC[C@H]1C(=O)N[C@@H](Cc1c[nH]cn1)C(=O)N[C@H](C(=O)N[C@@H](CC(N)=O)C(=O)N[C@@H](CCC(=O)O)C(=O)N[C@@H](Cc1ccccc1)C(=O)O)C(C)C [AMA1_321] (H-EDIPHVNEF-OH)
IC50 [1, 5]: 83000 nM

CC[C@H](C)[C@H](NC(=O)[C@H](CC(=O)O)NC(=O)[C@H](C)NC(=O)[C@H](Cc1ccc(O)cc1)NC(=O)[C@H](CCC(=O)O)NC(=O)[C@H](CC(=O)O)NC(=O)[C@H](CCCCN)NC(=O)[C@H](Cc1ccc(O)cc1)NC(=O)[C@@H](N)CCC(=O)O)C(=O)O [AMA1_527] (H-EYKDEYADI-OH)
IC50 [1, 5]: 2100 nM

CC[C@H](C)[C@H](NC(=O)[C@@H](N)CCSC)C(=O)N[C@H](C(=O)N1CCC[C@H]1C(=O)N[C@@H](Cc1ccccc1)C(=O)N[C@@H](Cc1c[nH]cn1)C(=O)N[C@@H](CCCCN)C(=O)N[C@@H](CCCCN)C(=O)N[C@@H](Cc1ccccc1)C(=O)O)[C@@H](C)CC [CYRPA_001] (H-MIIPFHKKF-OH)
IC50 [1, 5]: 295 nM

CC[C@H](C)[C@H](NC(=O)[C@H](Cc1ccccc1)NC(=O)[C@H](CCCCN)NC(=O)[C@H](CCCCN)NC(=O)[C@H](Cc1c[nH]cn1)NC(=O)[C@H](Cc1ccccc1)NC(=O)[C@@H]1CCCN1)C(=O)N[C@@H](CO)C(=O)N[C@@H](Cc1ccccc1)C(=O)N[C@@H](Cc1ccccc1)C(=O)O [CYRPA_004] (H-PFHKKFISFF-OH)
IC50 [1, 5]: 35.6 nM

CC[C@H](C)[C@H](N)C(=O)N[C@@H](Cc1ccc(O)cc1)C(=O)N[C@@H](CCCCN)C(=O)N[C@@H](CCCNC(=N)N)C(=O)N[C@@H](CCC(=O)O)C(=O)N[C@@H](CC(C)C)C(=O)N[C@@H](Cc1ccc(O)cc1)C(=O)N[C@@H](CC(N)=O)C(=O)N[C@H](C(=O)O)[C@@H](C)CC [CYRPA_055] (H-IYKRELYNI-OH)
IC50 [1, 5]: 86.8 nM

CC(C)C[C@H](NC(=O)[C@H](CCCCN)NC(=O)[C@H](Cc1ccc(O)cc1)NC(=O)[C@@H](N)CC(N)=O)C(=O)NCC(=O)N[C@H](C(=O)N[C@@H](CCC(N)=O)C(=O)N[C@@H](Cc1ccc(O)cc1)C(=O)N[C@@H](Cc1ccccc1)C(=O)N[C@@H](Cc1ccccc1)C(=O)O)C(C)C [CYRPA_218] (H-NYKLGVQYFF-OH)
IC50 [1, 5]: 26300 nM

CC[C@H](C)[C@H](NC(=O)[C@H](Cc1ccc(O)cc1)NC(=O)[C@H](CCC(=O)O)NC(=O)[C@H](CC(=O)O)NC(=O)[C@H](CC(N)=O)NC(=O)[C@H](CC(C)C)NC(=O)[C@@H](N)[C@@H](C)O)C(=O)N[C@H](C(=O)N[C@@H](CO)C(=O)N[C@@H](Cc1ccc(O)cc1)C(=O)O)C(C)C [CYRPA_285] (H-TLNDEYIVSY-OH)
IC50 [2]: 213000 nM
IC50 [3]: 304000 nM

CC[C@H](C)[C@H](N)C(=O)N[C@@H](Cc1ccccc1)C(=O)N[C@@H](Cc1ccccc1)C(=O)N[C@@H](CC(N)=O)C(=O)N[C@@H](CC(N)=O)C(=O)N[C@@H](CCC(=O)O)C(=O)N[C@@H](CC(N)=O)C(=O)N[C@@H](CO)C(=O)N[C@H](C(=O)O)[C@@H](C)CC [CYRPA_305] (H-IFFNNENSI-OH)
IC50 [1, 5]: 56.9 nM

CC[C@H](C)[C@H](NC(=O)[C@H](CCCCN)NC(=O)[C@H](CC(N)=O)NC(=O)[C@H](CCC(=O)O)NC(=O)[C@H](C)NC(=O)[C@H](CCCCN)NC(=O)[C@@H](NC(=O)[C@H](CO)NC(=O)[C@H](Cc1ccc(O)cc1)NC(=O)CN)[C@@H](C)O)C(=O)O [EBA175_0255] (H-GYSTKAENKI-OH)
IC50 [1, 6]: 1840 nM

CC(C)C[C@H](NC(=O)[C@H](CCCCN)NC(=O)[C@H](CCCCN)NC(=O)[C@H](CC(=O)O)NC(=O)[C@H](Cc1ccc(O)cc1)NC(=O)[C@H](CC(C)C)NC(=O)[C@H](CC(N)=O)NC(=O)[C@H](Cc1ccc(O)cc1)NC(=O)[C@@H](N)CCCNC(=N)N)C(=O)O [EBA175_1316] (H-RYNLYDKKL-OH)
IC50 [1, 6]: 172 nM

C[C@@H](O)[C@H](NC(=O)[C@H](Cc1ccccc1)NC(=O)[C@H](Cc1ccc(O)cc1)NC(=O)[C@@H](N)CO)C(=O)N[C@@H](Cc1ccc(O)cc1)C(=O)N[C@@H](CC(=O)O)C(=O)N[C@@H](CO)C(=O)N[C@@H](CCC(=O)O)C(=O)N[C@@H](CCC(=O)O)C(=O)N[C@@H](Cc1ccc(O)cc1)C(=O)O [EBA175_1390] (H-SYFTYDSEEY-OH)
IC50 [1, 6]: 22300 nM

CC(C)C[C@H](NC(=O)[C@H](Cc1c[nH]cn1)NC(=O)[C@H](CCCCN)NC(=O)[C@H](Cc1ccc(O)cc1)NC(=O)[C@H](Cc1ccc(O)cc1)NC(=O)[C@H](CC(=O)O)NC(=O)[C@H](CC(C)C)NC(=O)[C@@H](N)Cc1ccccc1)C(=O)N[C@@H](CO)C(=O)N[C@@H](Cc1ccc(O)cc1)C(=O)O [RH5_181] (H-FLDYYKHLSY-OH)
IC50 [2]: 646 nM
IC50 (nM), in vitro HLA binding affinity [3]: Non-Binder

CC[C@H](C)[C@H](NC(=O)[C@H](CO)NC(=O)[C@@H](N)CC(N)=O)C(=O)N[C@@H](Cc1ccc(O)cc1)C(=O)N[C@@H](Cc1c[nH]cn1)C(=O)N[C@@H](CCCCN)C(=O)N[C@@H](CO)C(=O)N[C@@H](CO)C(=O)N[C@H](C(=O)N[C@@H](Cc1ccc(O)cc1)C(=O)O)[C@@H](C)O [RH5_191] (H-NSIYHKSSTY-OH)
IC50 (nM), in vitro HLA binding affinity [2]: Non-Binder
IC50 [3]: 101000 nM

CC[C@H](C)[C@H](NC(=O)[C@@H](N)CO)C(=O)N[C@@H](Cc1ccc(O)cc1)C(=O)N[C@@H](Cc1c[nH]cn1)C(=O)N[C@@H](CCCCN)C(=O)N[C@@H](CO)C(=O)N[C@@H](CO)C(=O)N[C@H](C(=O)N[C@@H](Cc1ccc(O)cc1)C(=O)O)[C@@H](C)O [RH5_192] (H-SIYHKSSTY-OH)
IC50 (nM), in vitro HLA binding affinity [2]: Non-Binder
IC50 [3]: 5930 nM

CSCC[C@H](NC(=O)[C@H](CCSC)NC(=O)[C@@H](N)CCCCN)C(=O)N[C@@H](CC(=O)O)C(=O)N[C@@H](CCC(=O)O)C(=O)N[C@@H](Cc1ccc(O)cc1)C(=O)N[C@@H](CC(N)=O)C(=O)N[C@H](C(=O)N[C@@H](CCCCN)C(=O)N[C@@H](CCCCN)C(=O)O)[C@@H](C)O [RH5_302] (H-KMMDEYNTKK-OH)
IC50 [4]: 511000 nM
IC50 [3]: 8480 nM

CC[C@H](C)[C@H](NC(=O)[C@H](CC(=O)O)NC(=O)[C@@H]1CCCN1C(=O)[C@H](CC(C)C)NC(=O)[C@@H](NC(=O)[C@@H](N)CO)[C@@H](C)CC)C(=O)N[C@@H](CC(N)=O)C(=O)N[C@@H](CCCCN)C(=O)N[C@@H](CO)C(=O)N[C@@H](CCCCN)C(=O)O [RIPR_0500] (H-SILPDINKSK-OH)
IC50 [3]: 12700 nM

C[C@@H](O)[C@H](NC(=O)[C@@H](N)CO)C(=O)N[C@@H](CS)C(=O)N[C@@H](Cc1ccc(O)cc1)C(=O)NCC(=O)N[C@@H](CC(N)=O)C(=O)N[C@@H](CCCNC(=N)N)C(=O)N[C@@H](Cc1ccccc1)C(=O)N[C@@H](CC(N)=O)C(=O)N[C@@H](Cc1ccc(O)cc1)C(=O)O [RIPR_0648] (H-STCYGNRFNY-OH)
IC50 [2]: 54000 nM
IC50 (nM), in vitro HLA binding affinity [3]: Non-binder

CC(C)[C@H](NC(=O)[C@@H](N)CS)C(=O)N[C@@H](CS)C(=O)N[C@H](C(=O)N[C@@H](Cc1ccc(O)cc1)C(=O)N[C@@H](CC(N)=O)C(=O)N[C@@H](Cc1ccc(O)cc1)C(=O)N[C@@H](Cc1ccc(O)cc1)C(=O)N[C@@H](CCCCN)C(=O)N[C@@H](CCCCN)C(=O)O)[C@@H](C)O [RIPR_0924] (H-CVCTYNYYKK-OH)
IC50 [3]: 14400 nM

DLMNRTFKK [RH5_294]
IC50 (nM), in vitro HLA binding affinity [3]: Non-Binder

LSVKSKNLNK [RH5_369]
IC50 (nM), in vitro HLA binding affinity [3]: Non-Binder

NVNFLQYHFK [RH5_141]
IC50 (nM), in vitro HLA binding affinity [3]: Non-Binder

PSHNSFIKK [RH5_101]
IC50 (nM), in vitro HLA binding affinity [3]: Non-Binder

RTFKKMMDEY [RH5_298]
IC50 (nM), in vitro HLA binding affinity [2]: Non-Binder
IC50 (nM), in vitro HLA binding affinity [3]: Non-Binder
